Consider ten molecules from PubChem BioAssay (NCI).

Some test systems named below: BT-549 breast; HCT-15 colon; SK-MEL-2 melanoma; SK-MEL-28 melanoma; SNB-75 CNS; SNB-19 CNS; CAKI-1 renal; TK-10 renal.
Holding throughout (experiment): growth of human tumour cells (NCI), 48 h

Values joined by “and” are separate entries in the source; they are usually repeats but may differ in a detail not shown here. Equal entries are not always repeated.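 48-hour exposure; five concentrations; linearly interpolated endpoints. The concentration for 50% growth inhibition is given as GI50. TGI is the concentration that stops growth completely.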

On to `CN(C)C1CCN(Cc2ccc(NC(=O)c3cncc(C#Cc4cnc(N)c5ncccc45)c3)cc2C(F)(F)F)CC1`, for which the GI50 was 7.77 µM in the test on BT-549 breast; 5.08 µM in the test with HCT-15 colon; 8.02 µM in the test on SK-MEL-2 melanoma; 0.912 µM in the test on SK-MEL-28 melanoma; 5.39 µM with SNB-75 CNS; 10 µM in the test on SNB-19 CNS. Further, the GI50 in the test with CAKI-1 renal was 8.44 µM; in the test on TK-10 renal, 9.69 µM. Moreover, the TGI is 15.3 µM with BT-549 breast; 13.7 µM in the test with HCT-15 colon; 19.8 µM in the test on SK-MEL-2 melanoma; 1.74 µM in the test with SK-MEL-28 melanoma; 11.5 µM in the test with SNB-75 CNS; 21.2 µM with SNB-19 CNS. In addition, the TGI with CAKI-1 renal was 15.6 µM; in the test on TK-10 renal, 19.5 µM.

Turning to `CNS(=O)(=O)OCC1OC(n2cnc3cncnc32)C(O)C1O` (configuration not stated), the GI50 in the test on BT-549 breast, with HCT-15 colon, in the test with SK-MEL-2 melanoma, in the test on SK-MEL-28 melanoma, in the test on SNB-75 CNS and in the test with SNB-19 CNS was over 100 µM throughout. Besides, the GI50 with CAKI-1 renal and in the test with TK-10 renal was over 100 µM in each case. The TGI in the test with BT-549 breast, in the test on HCT-15 colon, in the test with SK-MEL-2 melanoma, in the test with SK-MEL-28 melanoma, in the test on SNB-75 CNS and in the test on SNB-19 CNS was over 100 µM throughout. Further, the TGI with CAKI-1 renal and with TK-10 renal was over 100 µM each time.

As to `COC(=O)c1ccc2nc(-c3cc4ccccc4n3C)n(CCCCOc3cc4c(cc3OC)C(=O)N3CCC[C@H]3C=N4)c2c1`, the GI50 in the test with BT-549 breast was 0.284 µM; in the test with HCT-15 colon, 2.41 µM; in the test on SK-MEL-28 melanoma it was 0.652 µM; in the test with SNB-75 CNS, 0.339 µM; in the test on SNB-19 CNS, 2.15 µM; in the test with CAKI-1 renal, 0.953 µM. For the same molecule, the GI50 in the test with TK-10 renal was 0.43 µM. The TGI stood at 1.13 µM in the test on BT-549 breast; 8.94 µM with HCT-15 colon; 0.631 µM in the test with SK-MEL-2 melanoma; 2.3 µM with SK-MEL-28 melanoma; 1.35 µM in the test with SNB-75 CNS; 7.07 µM with SNB-19 CNS. Moreover, the values for the TGI in the test with CAKI-1 renal and with TK-10 renal were 4.85 µM and 3.29 µM, respectively.

With `Cc1ccc(F)c(NC(=O)Nc2ccc(-c3cccc4[nH]nc(N)c34)cc2)c1`, the GI50 was 2.64 µM and 3.39 µM in the test on BT-549 breast; 3.21 µM and 3.11 µM with HCT-15 colon; 2.67 µM and 2.87 µM in the test on SK-MEL-2 melanoma; 3.94 µM and 3.85 µM with SK-MEL-28 melanoma; 4.72 µM and 3.54 µM in the test with SNB-75 CNS; 3.79 µM and 3.96 µM in the test on SNB-19 CNS. Besides, the GI50 with CAKI-1 renal is 2.83 µM and 3.85 µM; in the test with TK-10 renal, 3.6 µM and 2.84 µM. Further, the TGI in the test with BT-549 breast is 9.82 µM and > 10 µM; with HCT-15 colon it was 11.2 µM and > 10 µM; with SK-MEL-2 melanoma, 5.89 µM and 9.2 µM; with SK-MEL-28 melanoma, 18.7 µM and > 10 µM; in the test with SNB-75 CNS, 15.3 µM and > 10 µM; with SNB-19 CNS, 15.8 µM and > 10 µM. The TGI in the test on CAKI-1 renal is 10.1 µM and > 10 µM; in the test on TK-10 renal it was 14.6 µM and > 10 µM.

As to `Cc1ccc(C)c2c1C(=O)N(c1ccc(F)cc1F)C2=O`, the GI50 in the test on BT-549 breast, with HCT-15 colon, in the test with SK-MEL-2 melanoma, in the test with SK-MEL-28 melanoma, in the test on SNB-75 CNS and in the test on SNB-19 CNS was over 100 µM throughout. Besides, the GI50 in the test on CAKI-1 renal and in the test on TK-10 renal was over 100 µM each time. Moreover, the TGI in the test with BT-549 breast, in the test with HCT-15 colon, with SK-MEL-2 melanoma, in the test on SK-MEL-28 melanoma, with SNB-75 CNS and in the test with SNB-19 CNS was over 100 µM each time. Also, the TGI in the test on CAKI-1 renal and in the test with TK-10 renal was over 100 µM each time.

In the case of `O=C1/C(=C/c2ccc([N+](=O)[O-])s2)Oc2cc(Cl)ccc21`, the GI50 is 0.698 µM in the test with BT-549 breast; 0.276 µM in the test on HCT-15 colon; 1.45 µM in the test with SK-MEL-2 melanoma; 2.04 µM with SNB-75 CNS; 1.72 µM with SNB-19 CNS; 8.27 µM with TK-10 renal. Further, the TGI is 2.09 µM in the test on BT-549 breast; 1.12 µM in the test on HCT-15 colon; 3.33 µM with SK-MEL-2 melanoma; 11.6 µM in the test with SNB-75 CNS; 4.52 µM with SNB-19 CNS; over 21.1 µM in the test on TK-10 renal.

Take `COc1ccc(Nc2nc3cc(C(F)(F)F)ccc3nc2-c2ccccc2)cc1OC`: the TGI was over 100 µM with HCT-15 colon; over 100 µM with SK-MEL-2 melanoma; 63.8 µM in the test on SK-MEL-28 melanoma; over 100 µM in the test on SNB-75 CNS; 68.8 µM in the test with CAKI-1 renal; 43 µM in the test on TK-10 renal.

As for `CCc1ccccc1NC(=O)C(C#N)C1=C(Cl)C(=O)c2ccccc2C1=O` (configuration not stated), the TGI in the test with BT-549 breast stood at 71.7 µM; in the test on HCT-15 colon, 28.7 µM; in the test with SK-MEL-2 melanoma, 37.2 µM; with SK-MEL-28 melanoma, 36.4 µM; in the test with SNB-75 CNS it was 35.4 µM; in the test on SNB-19 CNS, 72.3 µM. Besides, the TGI in the test with CAKI-1 renal amounted to 45.6 µM; in the test with TK-10 renal, 33.7 µM.

Regarding `CC(c1cc(Cl)ccc1O)c1cc(Cl)ccc1O`, the GI50 in the test on BT-549 breast is 4.58 µM; in the test on HCT-15 colon, 4.54 µM; in the test on SK-MEL-2 melanoma it was 2.98 µM; with SK-MEL-28 melanoma it was 4.13 µM; with SNB-75 CNS it was 2.49 µM; with SNB-19 CNS it was 8.13 µM. The GI50 in the test on CAKI-1 renal was 2.61 µM; in the test on TK-10 renal, 11.8 µM. Also, the TGI amounted to 16.9 µM in the test with BT-549 breast; 16.6 µM with HCT-15 colon; 7.23 µM with SK-MEL-2 melanoma; 17 µM in the test with SK-MEL-28 melanoma; 11.9 µM in the test on SNB-75 CNS; 22.4 µM in the test on SNB-19 CNS. Further, the TGI with CAKI-1 renal is 16.4 µM; in the test with TK-10 renal, 24.7 µM.

For `O=C([O][Hg][c]1ccccc1)c1ccccc1`, the GI50 was 1.23 µM in the test with BT-549 breast; 0.437 µM with HCT-15 colon; 1.35 µM in the test with SK-MEL-2 melanoma; 1.45 µM with SK-MEL-28 melanoma; 1.23 µM in the test on SNB-75 CNS; 3.32 µM in the test with SNB-19 CNS. The results for the GI50 in the test with CAKI-1 renal and in the test on TK-10 renal were 1.8 µM and 1.6 µM, respectively. Moreover, the TGI stood at 2.64 µM in the test with BT-549 breast; 1.79 µM in the test with HCT-15 colon; 2.91 µM with SK-MEL-2 melanoma; 2.93 µM in the test with SK-MEL-28 melanoma; 3.63 µM in the test on SNB-75 CNS; 8.7 µM in the test with SNB-19 CNS. For the same molecule, the TGI was determined as 3.66 µM with CAKI-1 renal and 2.95 µM with TK-10 renal.
